The values below come from US7253295B2, “Chloride channel opener” (Sucampo AG, priority 2001, dated 2007).

The structures appear in SMILES notation. Values joined by “and” are separate entries in the source; they are usually repeats but may differ in a detail not shown here. Identical values can stand only once.

Assay [1] addresses T1, recombinant hClC-2 chloride channel (Homo sapiens, UniProt P51788).
T1 construct: His; T7; expressed in transfected cells; host or cells: HEK-293 (ATCC), pcDNA3.1, G-418 selected
T1 sequence (P51788 1-898): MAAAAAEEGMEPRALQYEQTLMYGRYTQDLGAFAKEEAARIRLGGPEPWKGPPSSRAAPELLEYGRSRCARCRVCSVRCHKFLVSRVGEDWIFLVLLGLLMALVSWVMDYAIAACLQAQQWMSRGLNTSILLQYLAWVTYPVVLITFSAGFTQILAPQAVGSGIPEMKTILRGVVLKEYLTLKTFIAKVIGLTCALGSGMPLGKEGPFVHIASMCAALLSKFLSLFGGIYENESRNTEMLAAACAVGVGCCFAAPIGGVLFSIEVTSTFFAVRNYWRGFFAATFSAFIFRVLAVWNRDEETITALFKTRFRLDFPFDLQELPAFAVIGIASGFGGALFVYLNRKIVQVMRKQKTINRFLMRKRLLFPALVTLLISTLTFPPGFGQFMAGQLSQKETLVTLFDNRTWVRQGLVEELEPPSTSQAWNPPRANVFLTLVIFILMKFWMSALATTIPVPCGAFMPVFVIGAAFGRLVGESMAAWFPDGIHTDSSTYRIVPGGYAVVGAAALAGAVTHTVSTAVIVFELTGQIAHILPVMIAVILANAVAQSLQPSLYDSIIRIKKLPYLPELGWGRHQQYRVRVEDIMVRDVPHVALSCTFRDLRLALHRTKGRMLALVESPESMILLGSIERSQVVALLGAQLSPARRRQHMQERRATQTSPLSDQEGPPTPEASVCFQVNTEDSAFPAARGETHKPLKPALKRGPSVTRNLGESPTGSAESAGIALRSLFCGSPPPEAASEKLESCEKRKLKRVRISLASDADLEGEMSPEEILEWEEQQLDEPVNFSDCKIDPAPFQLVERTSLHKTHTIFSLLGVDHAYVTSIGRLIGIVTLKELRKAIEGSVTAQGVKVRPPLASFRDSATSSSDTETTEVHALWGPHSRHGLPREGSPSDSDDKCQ
Nature of the assay: Whole cell patch clamp, HEK cells transfected with hClC-2 (Test Example 1). The note with it: for Effect on Cl currents in HEK cells transfected with hClC-2 (in words): 1 μM; for Cl channel activity: 1 μM in 1% DMSO, HEK cells transfected with hClC-2. The class given is cell-based. An excerpt:
Whole cell patch clamp method was used to assess the effect of compound 1 (13,14-dihydro-15-keto-16,16-difluoro-PGE1) and compound 2 (13,14-dihydro-15-keto-16,16-difluoro-18 (S)-methyl-PGE1) on recombinant hClC-2 chloride channel. In this example, effects of the respective compounds on Human Epithelial Kidney (HEK) cells transfected with human ClC-2 (hClC-2) were examined, and the results were compared with those on non-transfected HEK cells.
ClC-2 transfected human epithelial kidney (HEK) cells were prepared and used. HEK-293 cells obtained from American Type Culture Collection (ATCC; Manassas, Va.) were transfected with His- and T7-tagged human ClC-2 cDNA in the mammalian expression vector pcDNA3.1 (GIBCO/Invitrogen) using Lipofectamine (GIBCO/Invitrogen) for 5 h at 37° C. in serum-free medium. Cells were then resuspended in the serum-containing medium and cultured in the presence of 300 μg/ml G-418 (GIBCO/Invitrogen). The surviving cells were then expanded, tested to confirm expression of Cl- current and ClC-2 mRNA, and the cells expressing ClC-2 mRNA were frozen to store. Upon studies, the stored cells were thawed and maintained at 37° C. in 5%/95% CO2/O2 in MEM (GIBCO/Invitrogen) supplemented with 5% inactivated horse serum, 0.1 mM nonessential amino acids, 2 mM L-glutamine, 1 mM sodium pyruvate, 100 units/ml penicillin, and 100 μg/ml streptomycin sulfate.
In the whole cell patch clamp measurements, currents were elicited by voltage clamp pulses (1500 ms duration) between +40 mV and −140 mV, in 20 mV increments, from the beginning holding potential of −30 mV. Currents were measured 50-100 ms after start of the pulse. The external solution was normal Tyrode solution containing 135 mM NaCl, 1.8 mM CaCl2, 1 mM MgCl2, 5.4 mM KCl, 10 mM glucose, and 10 mM HEPES (pH 7.35). The pipette solution was 130 mM CsCl, 1 mM MgCl2, 5 mM EGTA, and 10 mM HEPES (pH 7.35); also present in the pipette was 1 mM ATP—Mg^2+ (pH 7.4).
Pipettes were prepared from borosilicate glass and pulled by a two stage Narashige puller to give 1-1.5 MΩ resistance. Data were acquired with Axopatch CV-4 headstage with Digidata 1200 digitizer and Axopatch 1D amplifier. Data were analyzed using pClamp 6.04 (Axon Instruments, Foster City, Calif.), Lotus 123 (IBM) and Origin (Microcal) software.
Compound 1 and compound 2 were used at a final concentration of 1 μM in 1% DMSO.
(In general: Patch clamp records ionic current or voltage across a cell membrane.)

In another assay the test system is 16HBE14o- cells. Kind of assay: Short-circuit current in 16HBE14o- cells (Test Example 2). The class given is cell-based, Human. The note with it: 1 μM, 1% DMSO. The method, then:
16HBE14o- cells, a Human airway cell line derived from a healthy individual, which contain ClC-2 and the Cystic Fibrosis Transmembrane Regulator, Cl channel (CFTR); and CFBE41o- cells, a Human airway cell line derived from cystic fibrosis patients, which contain functional form of ClC-2 and defective form of CFTR (ΔF508 CFTR) were used. Both cells were cultured in MEM supplemented with 10% FBS (Hyclone), […] 1-glutamine and penicillin/streptomycin in flasks coated with fibronectin/collagen/BSA. When desired, the cells were plated on 0.3 cm^2 collagen-coated permeable filters (Biocoat). After 24 hrs, the apical medium was removed so that the cells were grown in air-water interface. While they were grown in air-water interface, the basolateral side of the cells was fed with the medium and the medium was changed every other day. The cells were allowed to grow to confluence.
Short-circuit current measurements were used to evaluate Cl transport in polarized, confluent cultures of the cells grown in air-water interface. A plexiglass chamber for short-circuit current measurements in confluent cell monolayers grown on the 0.3 cm^2 permeable support filters was used (World Precision Instruments, Sarasota, Fla.). Electrical measurements were made with a 7402C voltage clamp device (Bioengineering Department, Iowa University). The temperature was held constant at 37° C. by circulating heated water through the water jacket of the chamber. The output of the amplifier was plotted on an analog chart recorder. Changes in short-circuit current (Δlsc) after addition of test compounds were normalized to filter area (0.3 cm^2) and reported as ΔIsc/cm^2.
Short-circuit current measurements in the 16HBE14o- and CFBE41o- cells were carried out as described by Lofling et al. (Am J Physiol, 277(4 Pt 1):L700-8, 1999, the cited reference is herein incorporated by reference). […] Both solutions were bubbled with CO2/O2 (5%/95%), which also served to help mix the solutions. In all cases, the basolateral membrane was permeabilized with 200 μg/ml nystatin. […]

`CCCCC(F)(F)[C@@]1(O)CC[C@H]2[C@@H](CC(=O)[C@@H]2CCCCCCC(=O)O)O1` [Compound 1, (−)-7-[(2R,4aR,5R,7aR)-2-(1,1-difluoropentyl)-2-hydroxy-6-oxoperhydrocyclopenta[b]pyran-5-yl]heptanoic acid]: in assay [1], the “Effect on Cl currents in HEK cells transfected with hClC-2 (in words)” value is “activated” and the Cl channel activity came to 1.820 ± 0.114 nS/pF. For the same compound, in the assay on 16HBE14o- cells, the “Short-Circuit Current (change)” value is 9.56±0.095 μA/cm^2 and 9.56 ± 0.95 μA/cm^2.

For the compound `CC[C@H](C)CC(F)(F)C(=O)CC[C@H]1[C@H](O)CC(=O)[C@@H]1CCCCCCC(=O)O` [Compound 2, 13,14-dihydro-15-keto-16,16-difluoro-18(S)-Methyl-PGE1], in assay [1], the “Effect on Cl currents in HEK cells transfected with hClC-2 (in words)” value is recorded as “activated” and the Cl channel activity was determined as 0.558 ± 0.100 nS/pF. In the assay on 16HBE14o- cells, the “Short-Circuit Current (change)” value was 11.6±1.3 μA/cm^2. Besides, in the assay with 16HBE14o- cells (listed as compound 2), the “Short-Circuit Current (change)” value turned out to be 11.6 ± 1.3 μA/cm^2.
